Source: patent US20230002400A1, “AMORPHOUS FORM OF NITROGEN-CONTAINING TRICYCLIC COMPOUND AND USE THEREOF” (SUNSHINE LAKE PHARMA CO., LTD., priority 2019, published 2023)

Assays:
[1] = Hygroscopicity test by dynamic moisture adsorption device; assay type: physicochemical; settings: relative humidity of 80%
Description: The description of the hygroscopic feature and the definition of the hygroscopic weight gain (Chinese Pharmacopoeia 2015 edition, Appendix 9103 Guidelines for Drug Hygroscopicity Tests, experimental conditions: 25° C. ±1° C., 80% ±2% relative humidity) are as described in the table below.
An appropriate amount of the test sample was taken and the hygroscopicity of the test sample was tested by dynamic moisture adsorption device. […] That is, the amorphous form of the invention is not easily deliquescent under the influence of high humidity.

[2] = Stability test: high humidity test (25° C., RH 90% ±5%); assay type: physicochemical; settings: for Appearance / Purity (%): High humidity 25° C., RH 90% ±5%
Description: (2) High humidity test: A batch of the test sample was taken into the flat weighing bottle, divided into <5 mm thick thin layer. The sample was placed at 25° C. and RH for 90% ±5% for 30 days. The sample was then taken on days 5, 10, and 30, and the change of the sample's color was observed. The purity of the sample was detected by HPLC, and the structure of the sample was analyzed by X-ray powder diffraction, the change of X-ray powder diffraction in high humidity test was substantially shown in FIG. 5.

[3] = Stability test: light test (light box with UV); assay type: physicochemical; settings: for Appearance / Purity (%): Light (with UV)
Description: (3) Light test: A batch of the test sample was taken into the flat weighing bottle, divided into ≤5 mm thick thin layer. The sample was placed in an opened light box (with UV) at the illuminance 4500±5001x, UV light ≥0.7w/m2 for 30 days. The sample was then taken on days 5, 13, and 30, and the change of the sample's color was observed. The purity of the sample was detected by HPLC, and the structure of the sample was analyzed by X-ray powder diffraction, the change of X-ray powder diffraction in light test was substantially shown in FIG. 6.

[4] = Pharmacokinetic test in Beagle dogs, oral capsules; assay type: in vivo; settings: dog, plasma, male Beagle dogs, 5 mg/kg orally
Description: The amorphous form of compound having Formula (I) named 2-((5-cyclopropyl-3-(2,6-di chl orophenyl)i soxazol-4-yl)methoxy)-10H-spiro[b enzo[6,7]oxepino[3,2-b]pyridine-11,1′-cyclopropane]-7-carboxylic acid was filled into capsules, which was for oral administration.
8-12 kg Male Beagle dogs were given 5 mg/kg test sample orally, with 3 animals in each group. Blood was taken at time points of 0.25, 0.5, 1.0, 2.0, 4.0, 6.0, 8.0, 12 and 24 h. Standard curve was plotted based on concentrations of the samples in a suitable range, the concentration of the test sample in the plasma sample was measured and quantified by AB SCIEX API4000 LC-MS/MS at MRM mode. Pharmacokinetic parameters were calculated according to drug concentration -time curve using a noncompartmental model by WinNonLin 6.3 software.

[5] = Stability test: high temperature test (60° C.); assay type: physicochemical
Description: (1) High temperature test: A batch of the test sample was taken into a flat weighing bottle, divided into ≤5 mm thick thin layer. The sample was placed at 60° C. for 30 days. The sample was then taken on days 5, 10, and 30, and the change of the sample's color was observed. The purity of the sample was detected by HPLC, and the structure of the sample was analyzed by X-ray powder diffraction, the change of X-ray powder diffraction in high temperature test was substantially shown in FIG. 4.

- hygroscopic weight gain ([1]; after equilibrium): less than 2%
- hygroscopic feature ([1]; criterion for the hygroscopic weight gain): slightly hygroscopic
- Appearance ([2]; 5 Days): White
- Purity (%) ([2]; 5 Days, HPLC): 99.64%
- Appearance ([2]; 10 Days): White
- Purity (%) ([2]; 10 Days, HPLC): 99.61%
- Appearance ([2]; 30 Days): White
- Purity (%) ([2]; 30 Days, HPLC): 99.63%
- changes of appearance, chemical purity and crystal form ([2]; high humidity, up to 30 days, HPLC, XRPD): no obvious changes
- Appearance ([3]; 5 Days): White
- Purity (%) ([3]; 5 Days, HPLC): 99.62%
- Appearance ([3]; 13 days): White
- Purity (%) ([3]; 13 days, HPLC): 99.63%
- Appearance ([3]; 30 days): White
- Purity (%) ([3]; 30 days, HPLC): 99.57%
- changes of appearance, chemical purity and crystal form ([3]; light, up to 30 days, HPLC, XRPD): no obvious changes
- AUC(0-t) [4]: 765 ng·h/mL
- Cmax [4]: 268 ng/mL
- Tmax [4]: 2 h
- Appearance ([5]; 0 Day (start of stability test)): White
- Purity (%) ([5]; 0 Day (start of stability test), HPLC): 99.66%
- Appearance ([5]; High temperature 60° C., 5 Days): White
- Purity (%) ([5]; High temperature 60° C., 5 Days, HPLC): 99.65%
- Appearance ([5]; High temperature 60° C., 10 Days): White
- Purity (%) ([5]; High temperature 60° C., 10 Days, HPLC): 99.48%
- Appearance ([5]; High temperature 60° C., 30 Days): White
- Purity (%) ([5]; High temperature 60° C., 30 Days, HPLC): 99.60%
- changes of appearance, chemical purity and crystal form ([5]; high temperature, up to 30 days, HPLC, XRPD): no obvious changes
Compound: O=C(O)c1ccc2c(c1)Oc1ccc(OCc3c(-c4c(Cl)cccc4Cl)noc3C3CC3)nc1C1(CC1)C2 [The amorphous form, 2-((5-cyclopropyl-3-(2,6-dichlorophenyl)isoxazol-4-yl)methoxy)-10H-spiro[benzo[6,7]oxepino[3,2-b]pyridine-11,1′-cyclopropane]-7-carboxylic acid]
